Experimental data reported in ChEMBL document CHEMBL4311972, “Discovery of a benzothiophene-flavonol halting miltefosine and antimonial drug resistance in Leishmania parasites through the application of medicinal chemistry, screening and genomics” (Eur J Med Chem, 2019).

System: Leishmania infantum
Assay: Antileishmanial activity against luciferase expressing intracellular amastigote stage of Leishmania infantum infected in human THP1 cells assessed as parasite growth inhibition measured after 48 to 72 hrs by steady-glo luciferase assay
Type: functional, organism-based
Conditions: Leishmania infantum, THP-1; read-out: EC50

Compound	EC50
O=c1c(O)c(-c2csc3ccccc23)oc2ccc(Cl)cc12	2.7 µM
COc1ccc2oc(-c3csc4ccccc34)c(OC(C)=O)c(=O)c2c1	2.1 µM
O=c1c(O)c(-c2csc3ccccc23)oc2ccc(Br)cc12	2.7 µM

System: Trypanosoma brucei
Assay: Antitrypanosomal activity against Trypanosoma brucei bloodstream form assessed as parasite growth inhibition incubated for 72 hrs by resazurin dye based assay
Type: functional, organism-based
Conditions: Trypanosoma brucei, 72 h; read-out: EC50

Compound	EC50
O=c1c(O)c(-c2cccc(-c3ccc(O)c(O)c3)c2)oc2ccc(O)cc12	1.7 µM
COc1ccc2oc(-c3cccc(-c4ccc5c(c4)OCO5)c3)c(O)c(=O)c2c1	3.9 µM
COc1ccc2oc(-c3cccc(-c4ccc(OC)c(OC)c4)c3)c(O)c(=O)c2c1	3 µM

The remaining lines, values ahead:

EC50	Compound
2.1 µM	O=c1c(O)c(-c2csc3ccccc23)oc2ccc(Cl)cc12
1.3 µM	COc1ccc2oc(-c3csc4ccccc34)c(OC(C)=O)c(=O)c2c1
1.5 µM	O=c1c(O)c(-c2csc3ccccc23)oc2ccc(Br)cc12
5.7 µM	COc1ccc2oc(-c3cc(C)cs3)c(O)c(=O)c2c1

System: not listed separately
Assay: Cytotoxicity against human THP1 cells by MTT assay
Type: cell-based, THP-1
Conditions: not given

Compound	CC50
O=c1c(O)c(-c2csc3ccccc23)oc2ccc(Cl)cc12	12.5 to 25 µM
COc1ccc2oc(-c3csc4ccccc34)c(OC(C)=O)c(=O)c2c1	12.5 to 25 µM
O=c1c(O)c(-c2cccc(-c3ccc(O)c(O)c3)c2)oc2ccc(O)cc12	25 to 50 µM
COc1ccc2oc(-c3cccc(-c4ccc5c(c4)OCO5)c3)c(O)c(=O)c2c1	25 to 50 µM
O=c1c(O)c(-c2csc3ccccc23)oc2ccc(Br)cc12	25 to 50 µM
COc1ccc2oc(-c3cccc(-c4ccc(OC)c(OC)c4)c3)c(O)c(=O)c2c1	25 to 50 µM
COc1ccc2oc(-c3cc(C)cs3)c(O)c(=O)c2c1	25 to 50 µM

System: not listed separately
Assay: Selectivity index, ratio of CC50 for human THP1 cells to EC50 for luciferase expressing intracellular amastigote stage of Leishmania infantum infected in human THP1 cells
Type: toxicity, cell-based
Conditions: read-out: Ratio CC50/EC50

Compound	selectivity ratio
O=c1c(O)c(-c2csc3ccccc23)oc2ccc(Cl)cc12	5
COc1ccc2oc(-c3csc4ccccc34)c(OC(C)=O)c(=O)c2c1	6
O=c1c(O)c(-c2csc3ccccc23)oc2ccc(Br)cc12	9

System: not listed separately
Assay: Selectivity index, ratio of CC50 for human THP1 cells to EC50 for Trypanosoma brucei bloodstream form
Type: toxicity
Conditions: read-out: Ratio CC50/EC50

Compound	selectivity ratio
O=c1c(O)c(-c2cccc(-c3ccc(O)c(O)c3)c2)oc2ccc(O)cc12	15
COc1ccc2oc(-c3cccc(-c4ccc5c(c4)OCO5)c3)c(O)c(=O)c2c1	6
COc1ccc2oc(-c3cccc(-c4ccc(OC)c(OC)c4)c3)c(O)c(=O)c2c1	8
COc1ccc2oc(-c3cc(C)cs3)c(O)c(=O)c2c1	4

Molecular target: hERG (KCNH2) (Homo sapiens, UniProt Q12809)
Assay: Inhibition of human ERG at 10 uM incubated for 2 hrs by fluorescence polarization assay relative to control
Conditions: not given

Chain of hERG (KCNH2) (Q12809 whole entry): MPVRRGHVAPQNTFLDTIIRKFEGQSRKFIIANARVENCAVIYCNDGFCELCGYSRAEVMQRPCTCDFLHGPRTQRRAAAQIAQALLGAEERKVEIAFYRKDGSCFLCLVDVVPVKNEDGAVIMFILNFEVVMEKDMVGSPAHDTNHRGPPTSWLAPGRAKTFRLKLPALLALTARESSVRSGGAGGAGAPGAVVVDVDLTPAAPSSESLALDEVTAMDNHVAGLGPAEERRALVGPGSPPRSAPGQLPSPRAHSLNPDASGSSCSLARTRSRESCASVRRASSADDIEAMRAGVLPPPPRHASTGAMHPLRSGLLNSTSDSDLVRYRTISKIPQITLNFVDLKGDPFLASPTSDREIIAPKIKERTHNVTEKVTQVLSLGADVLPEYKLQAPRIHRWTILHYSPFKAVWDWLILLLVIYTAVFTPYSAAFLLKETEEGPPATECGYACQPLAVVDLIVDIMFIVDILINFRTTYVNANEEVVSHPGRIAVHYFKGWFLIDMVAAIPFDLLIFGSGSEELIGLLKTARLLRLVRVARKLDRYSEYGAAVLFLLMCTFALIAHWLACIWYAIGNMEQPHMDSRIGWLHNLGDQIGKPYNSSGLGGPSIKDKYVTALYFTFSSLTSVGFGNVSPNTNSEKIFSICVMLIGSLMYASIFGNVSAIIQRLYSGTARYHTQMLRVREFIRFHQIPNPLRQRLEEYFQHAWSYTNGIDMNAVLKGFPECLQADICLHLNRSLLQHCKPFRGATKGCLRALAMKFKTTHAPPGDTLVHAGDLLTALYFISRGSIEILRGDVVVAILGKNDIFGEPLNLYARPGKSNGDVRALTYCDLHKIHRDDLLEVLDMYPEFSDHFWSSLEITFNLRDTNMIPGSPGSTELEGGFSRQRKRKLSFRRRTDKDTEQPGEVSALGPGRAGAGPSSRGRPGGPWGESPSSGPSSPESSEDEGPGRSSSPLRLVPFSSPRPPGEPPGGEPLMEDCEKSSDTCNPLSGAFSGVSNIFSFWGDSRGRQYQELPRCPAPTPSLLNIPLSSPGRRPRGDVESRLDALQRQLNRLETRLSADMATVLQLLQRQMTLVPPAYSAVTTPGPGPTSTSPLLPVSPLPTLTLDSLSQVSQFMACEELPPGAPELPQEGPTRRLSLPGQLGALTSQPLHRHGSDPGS

Compound	inhibition at 2 h, 10 µM
O=c1c(O)c(-c2csc3ccccc23)oc2ccc(Cl)cc12	-14%
COc1ccc2oc(-c3csc4ccccc34)c(OC(C)=O)c(=O)c2c1	-30%
O=c1c(O)c(-c2cccc(-c3ccc(O)c(O)c3)c2)oc2ccc(O)cc12	4.2%
COc1ccc2oc(-c3cccc(-c4ccc5c(c4)OCO5)c3)c(O)c(=O)c2c1	0.34%
O=c1c(O)c(-c2csc3ccccc23)oc2ccc(Br)cc12	-60.1%
COc1ccc2oc(-c3cccc(-c4ccc(OC)c(OC)c4)c3)c(O)c(=O)c2c1	-14.3%
COc1ccc2oc(-c3cc(C)cs3)c(O)c(=O)c2c1	6.55%

Molecular target: T1, CYP1A2 (Homo sapiens, UniProt P05177)
T1 sequence (P05177 whole entry): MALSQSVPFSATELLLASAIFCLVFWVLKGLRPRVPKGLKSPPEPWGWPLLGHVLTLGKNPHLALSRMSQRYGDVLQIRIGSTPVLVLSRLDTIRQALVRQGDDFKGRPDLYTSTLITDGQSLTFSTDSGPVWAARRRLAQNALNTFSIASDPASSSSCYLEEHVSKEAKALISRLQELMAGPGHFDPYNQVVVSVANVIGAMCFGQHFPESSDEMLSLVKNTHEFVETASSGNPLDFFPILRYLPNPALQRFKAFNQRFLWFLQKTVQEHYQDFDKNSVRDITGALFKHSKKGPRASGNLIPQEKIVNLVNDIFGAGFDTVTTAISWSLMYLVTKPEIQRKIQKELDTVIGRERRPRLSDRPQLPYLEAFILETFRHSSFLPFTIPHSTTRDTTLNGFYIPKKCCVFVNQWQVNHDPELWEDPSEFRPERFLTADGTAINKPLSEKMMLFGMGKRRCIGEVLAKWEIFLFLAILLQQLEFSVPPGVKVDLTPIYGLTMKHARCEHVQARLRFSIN
Assay: Inhibition of human microsomal CYP1A2 expressed in baculovirus infected insect cells at 10 uM using luciferin-1A2 as substrate preincubated with enzyme/substrate mixture for 30 mins followed by further incubation with NADPH for 30 mins by CYP450 luciferase Glo assay relative to control
Type: ADME
Conditions: probe luciferin-1A2

Compound	inhibition at 0.5 h, 10 µM
O=c1c(O)c(-c2cccc(-c3ccc(O)c(O)c3)c2)oc2ccc(O)cc12	51.9%
COc1ccc2oc(-c3cccc(-c4ccc5c(c4)OCO5)c3)c(O)c(=O)c2c1	61.8%
COc1ccc2oc(-c3cccc(-c4ccc(OC)c(OC)c4)c3)c(O)c(=O)c2c1	83.1%

Now from value to compound:

inhibition at 0.5 h, 10 µM	Compound
84.7%	O=c1c(O)c(-c2csc3ccccc23)oc2ccc(Cl)cc12
90.7%	COc1ccc2oc(-c3csc4ccccc34)c(OC(C)=O)c(=O)c2c1
78%	O=c1c(O)c(-c2csc3ccccc23)oc2ccc(Br)cc12
94.8%	COc1ccc2oc(-c3cc(C)cs3)c(O)c(=O)c2c1

Molecular target: CYP2C9 (Homo sapiens, UniProt P11712)
Assay: Inhibition of human microsomal CYP2C9 expressed in baculovirus infected insect cells at 10 uM using luciferin-H as substrate preincubated with enzyme/substrate mixture for 30 mins followed by further incubation with NADPH for 30 mins by CYP450 luciferase Glo assay relative to control
Type: ADME
Conditions: probe luciferin-H

Chain of CYP2C9 (P11712 whole entry): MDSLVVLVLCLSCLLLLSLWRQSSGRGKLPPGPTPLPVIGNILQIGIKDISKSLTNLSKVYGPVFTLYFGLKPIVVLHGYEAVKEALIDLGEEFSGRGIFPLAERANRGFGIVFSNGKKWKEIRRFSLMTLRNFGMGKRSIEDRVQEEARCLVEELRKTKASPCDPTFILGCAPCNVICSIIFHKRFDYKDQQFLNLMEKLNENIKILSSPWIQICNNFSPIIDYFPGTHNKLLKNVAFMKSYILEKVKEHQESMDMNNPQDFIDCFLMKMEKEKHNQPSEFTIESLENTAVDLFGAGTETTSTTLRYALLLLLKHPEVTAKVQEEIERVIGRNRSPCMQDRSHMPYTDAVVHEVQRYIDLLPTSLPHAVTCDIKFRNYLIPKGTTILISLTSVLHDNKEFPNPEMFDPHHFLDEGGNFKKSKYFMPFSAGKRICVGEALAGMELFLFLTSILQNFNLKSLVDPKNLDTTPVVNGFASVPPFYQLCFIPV

Compound	inhibition at 0.5 h, 10 µM
O=c1c(O)c(-c2cccc(-c3ccc(O)c(O)c3)c2)oc2ccc(O)cc12	-22.6%
COc1ccc2oc(-c3cccc(-c4ccc5c(c4)OCO5)c3)c(O)c(=O)c2c1	25.8%
COc1ccc2oc(-c3cccc(-c4ccc(OC)c(OC)c4)c3)c(O)c(=O)c2c1	40.1%

Other lines, results leading:

inhibition at 0.5 h, 10 µM	Compound
28.6%	O=c1c(O)c(-c2csc3ccccc23)oc2ccc(Cl)cc12
-229%	COc1ccc2oc(-c3csc4ccccc34)c(OC(C)=O)c(=O)c2c1
25.3%	O=c1c(O)c(-c2csc3ccccc23)oc2ccc(Br)cc12
29.2%	COc1ccc2oc(-c3cc(C)cs3)c(O)c(=O)c2c1

Molecular target: CYP2C19 (Homo sapiens, UniProt P33261)
Assay: Inhibition of human microsomal CYP2C19 expressed in baculovirus infected insect cells at 10 uM using luciferin-H EGE as substrate preincubated with enzyme/substrate mixture for 30 mins followed by further incubation with NADPH for 30 mins by CYP450 luciferase Glo assay relative to control
Type: ADME
Conditions: probe luciferin-H EGE

Chain of CYP2C19 (P33261 whole entry): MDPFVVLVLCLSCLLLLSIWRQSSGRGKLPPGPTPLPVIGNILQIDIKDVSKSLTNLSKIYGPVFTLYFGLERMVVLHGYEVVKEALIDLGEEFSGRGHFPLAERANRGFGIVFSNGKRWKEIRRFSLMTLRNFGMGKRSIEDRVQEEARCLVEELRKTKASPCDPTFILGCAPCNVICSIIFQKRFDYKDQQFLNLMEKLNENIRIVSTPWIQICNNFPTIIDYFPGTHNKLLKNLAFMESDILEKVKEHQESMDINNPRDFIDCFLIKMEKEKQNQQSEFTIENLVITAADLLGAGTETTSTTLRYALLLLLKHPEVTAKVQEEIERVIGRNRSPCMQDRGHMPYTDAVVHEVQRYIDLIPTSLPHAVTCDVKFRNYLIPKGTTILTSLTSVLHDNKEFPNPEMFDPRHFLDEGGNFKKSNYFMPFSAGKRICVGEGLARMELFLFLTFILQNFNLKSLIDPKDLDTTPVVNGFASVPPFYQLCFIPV

Compound	inhibition at 0.5 h, 10 µM
O=c1c(O)c(-c2cccc(-c3ccc(O)c(O)c3)c2)oc2ccc(O)cc12	31.5%
COc1ccc2oc(-c3cccc(-c4ccc5c(c4)OCO5)c3)c(O)c(=O)c2c1	24.5%
COc1ccc2oc(-c3cccc(-c4ccc(OC)c(OC)c4)c3)c(O)c(=O)c2c1	22%

Second part, the compound after the results:

inhibition at 0.5 h, 10 µM	Compound
12%	O=c1c(O)c(-c2csc3ccccc23)oc2ccc(Cl)cc12
69.6%	COc1ccc2oc(-c3csc4ccccc34)c(OC(C)=O)c(=O)c2c1
24.3%	O=c1c(O)c(-c2csc3ccccc23)oc2ccc(Br)cc12
20.9%	COc1ccc2oc(-c3cc(C)cs3)c(O)c(=O)c2c1

Molecular target: CYP2D6 (Homo sapiens, UniProt P10635)
Assay: Inhibition of human microsomal CYP2D6 expressed in baculovirus infected insect cells at 10 uM using luciferin-ME as substrate preincubated with enzyme/substrate mixture for 30 mins followed by further incubation with NADPH for 30 mins by CYP450 luciferase Glo assay relative to control
Type: ADME
Conditions: probe luciferin-ME

Chain of CYP2D6 (P10635 whole entry): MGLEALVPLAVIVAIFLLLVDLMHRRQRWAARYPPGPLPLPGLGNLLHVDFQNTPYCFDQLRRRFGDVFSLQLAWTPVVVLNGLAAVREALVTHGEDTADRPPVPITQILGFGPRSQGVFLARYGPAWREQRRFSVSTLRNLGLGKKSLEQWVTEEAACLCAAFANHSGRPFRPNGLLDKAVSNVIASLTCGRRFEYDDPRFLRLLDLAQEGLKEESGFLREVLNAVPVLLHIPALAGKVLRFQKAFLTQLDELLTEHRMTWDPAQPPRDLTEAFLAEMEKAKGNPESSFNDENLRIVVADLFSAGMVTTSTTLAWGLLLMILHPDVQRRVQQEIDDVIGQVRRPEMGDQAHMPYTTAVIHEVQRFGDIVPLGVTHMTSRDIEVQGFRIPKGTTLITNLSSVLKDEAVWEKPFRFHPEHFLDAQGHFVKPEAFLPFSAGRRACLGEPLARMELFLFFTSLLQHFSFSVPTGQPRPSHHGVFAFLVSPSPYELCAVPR

Compound	inhibition at 0.5 h, 10 µM
O=c1c(O)c(-c2cccc(-c3ccc(O)c(O)c3)c2)oc2ccc(O)cc12	34%
COc1ccc2oc(-c3cccc(-c4ccc5c(c4)OCO5)c3)c(O)c(=O)c2c1	21.9%
COc1ccc2oc(-c3cccc(-c4ccc(OC)c(OC)c4)c3)c(O)c(=O)c2c1	40.6%

Results, then the compound that gave them:

inhibition at 0.5 h, 10 µM	Compound
16.2%	O=c1c(O)c(-c2csc3ccccc23)oc2ccc(Cl)cc12
30.8%	COc1ccc2oc(-c3csc4ccccc34)c(OC(C)=O)c(=O)c2c1
27.5%	O=c1c(O)c(-c2csc3ccccc23)oc2ccc(Br)cc12
30.6%	COc1ccc2oc(-c3cc(C)cs3)c(O)c(=O)c2c1

Molecular target: CYP3A4 (Homo sapiens, UniProt P08684)
Assay: Inhibition of human microsomal CYP3A4 expressed in baculovirus infected insect cells at 10 uM using luciferin-IPA as substrate preincubated with enzyme/substrate mixture for 30 mins followed by further incubation with NADPH for 30 mins by CYP450 luciferase Glo assay relative to control
Type: ADME
Conditions: probe luciferin-IPA

Chain of CYP3A4 (P08684 whole entry): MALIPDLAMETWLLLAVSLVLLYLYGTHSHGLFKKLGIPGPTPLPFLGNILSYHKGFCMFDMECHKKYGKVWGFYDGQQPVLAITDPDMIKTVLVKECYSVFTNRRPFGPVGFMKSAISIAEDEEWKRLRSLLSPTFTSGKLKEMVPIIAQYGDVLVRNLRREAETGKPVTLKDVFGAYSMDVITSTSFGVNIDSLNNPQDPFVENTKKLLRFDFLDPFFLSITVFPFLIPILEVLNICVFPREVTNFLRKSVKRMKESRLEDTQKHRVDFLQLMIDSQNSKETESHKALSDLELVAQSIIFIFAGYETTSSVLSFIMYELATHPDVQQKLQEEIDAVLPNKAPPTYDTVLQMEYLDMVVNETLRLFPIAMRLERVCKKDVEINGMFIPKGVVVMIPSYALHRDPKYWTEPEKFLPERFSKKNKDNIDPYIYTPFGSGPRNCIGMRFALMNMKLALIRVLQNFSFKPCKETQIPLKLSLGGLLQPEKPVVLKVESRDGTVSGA

Compound	inhibition at 0.5 h, 10 µM
O=c1c(O)c(-c2cccc(-c3ccc(O)c(O)c3)c2)oc2ccc(O)cc12	21.5%
COc1ccc2oc(-c3cccc(-c4ccc5c(c4)OCO5)c3)c(O)c(=O)c2c1	44.6%
COc1ccc2oc(-c3cccc(-c4ccc(OC)c(OC)c4)c3)c(O)c(=O)c2c1	52.5%

Next, values leading:

inhibition at 0.5 h, 10 µM	Compound
1.36%	O=c1c(O)c(-c2csc3ccccc23)oc2ccc(Cl)cc12
42%	COc1ccc2oc(-c3csc4ccccc34)c(OC(C)=O)c(=O)c2c1
-6.12%	O=c1c(O)c(-c2csc3ccccc23)oc2ccc(Br)cc12
4.51%	COc1ccc2oc(-c3cc(C)cs3)c(O)c(=O)c2c1

System: not listed separately
Assay: Cytotoxicity against human A549 cells assessed as cell growth at […] incubated for 48 hrs by Celltiter-Glo luminescence assay relative to control
Type: cell-based
Set-up: dose or concentration left out as unconfirmed
Conditions: read-out: Activity

Compound	viability at 48 h
O=c1c(O)c(-c2csc3ccccc23)oc2ccc(Cl)cc12	126%
COc1ccc2oc(-c3csc4ccccc34)c(OC(C)=O)c(=O)c2c1	47.3%
O=c1c(O)c(-c2cccc(-c3ccc(O)c(O)c3)c2)oc2ccc(O)cc12	32.5%
COc1ccc2oc(-c3cccc(-c4ccc5c(c4)OCO5)c3)c(O)c(=O)c2c1	30.5%
O=c1c(O)c(-c2csc3ccccc23)oc2ccc(Br)cc12	119%
COc1ccc2oc(-c3cccc(-c4ccc(OC)c(OC)c4)c3)c(O)c(=O)c2c1	19.5%
COc1ccc2oc(-c3cc(C)cs3)c(O)c(=O)c2c1	98.8%

System: 786-0
Assay: Mitochondrial toxicity in human 786-0 cells at 10 uM incubated with compound for 6 hrs followed by incubation with MitoTracker Red chloromethyl-X-rosamine dye for 45 mins by imaging analysis
Type: cell-based
Conditions: 786-0, 6 h

Compound	Activity
O=c1c(O)c(-c2csc3ccccc23)oc2ccc(Cl)cc12	-21.98%
COc1ccc2oc(-c3csc4ccccc34)c(OC(C)=O)c(=O)c2c1	-27.27%
O=c1c(O)c(-c2cccc(-c3ccc(O)c(O)c3)c2)oc2ccc(O)cc12	-1.03%
COc1ccc2oc(-c3cccc(-c4ccc5c(c4)OCO5)c3)c(O)c(=O)c2c1	-1.63%
O=c1c(O)c(-c2csc3ccccc23)oc2ccc(Br)cc12	-22.7%
COc1ccc2oc(-c3cccc(-c4ccc(OC)c(OC)c4)c3)c(O)c(=O)c2c1	-9.66%
COc1ccc2oc(-c3cc(C)cs3)c(O)c(=O)c2c1	-5.29%
